{
  "source": "paper PMC9502993",
  "about": "(Pharmaceuticals, 2022)",
  "key": {"[1]": {"assay": "Cell viability assay (Orangu WST-8, formazan-based)", "details": "human, HEK293T cells"}, "[2]": {"system": "HEK293T cells", "assay": "Cell viability assay (Orangu WST-8, formazan-based)", "details": "48 h"}, "[3]": {"system": "Caco-2 cell barrier", "assay": "Cell barrier integrity (TEER, cellZscope2)", "assay_type": "cell-based", "details": "50 and 100 nM, 20 h"}, "[4]": {"system": "Calu-3 cell barrier", "assay": "Transport assay across cell barrier"}, "[5]": {"system": "HCoV-229E", "details": "HCoV-229E ref 6; read-out: EC50 (50% reduction of the virus titer); cited from earlier work"}, "[6]": {"system": "various viruses, such as corona- and Ebolaviruses", "details": "cited from earlier work"}, "[7]": {"system": "lung cancer cell line A549", "design": "method as in PMID 31931103", "details": "A549 ref 5; cited from earlier work"}, "[8]": {"system": "colon cancer cell line HT29", "details": "HT29 ref 17; cited from earlier work"}, "[9]": {"system": "MERS-CoV", "details": "MERS-CoV ref 6; read-out: EC50 (50% reduction of the virus titer); cited from earlier work"}, "[10]": {"system": "Caki-2 cells", "assay": "Cell viability assay (Orangu WST-8, formazan-based)", "details": "48 h"}, "[11]": {"assay": "Cell viability assay (Orangu WST-8, formazan-based)", "details": "human, Caki-2 cells"}, "[12]": {"system": "HEK293T cells", "assay": "Ca2+-release assay (Fluo-8-AM), GPCR off-target", "assay_type": "cell-based", "details": "silvestrol 10, 50, 100 nM", "experimental": "Next, 50,000 HEK293T cells were seeded in a 96-well poly-D-lysine-coated plate and incubated at 37 °C for 24 h. Cells were incubated with 4 µM Fluo-8-AM in HBSS for 1 h at 37 °C. After 1 h, the Fluo-8/HBSS was replaced by 100 µL HBSS. Five images per second were taken using an ImageXpress Micro Confocal High Content Imaging System (Molecular Device, San Jose, CA, USA). […] An image was taken every second for the next 20 s. The MetaXpress Software Version 6.7.1.157 (San Jose, CA, USA) was used to analyze the data. A threshold of fluorescence intensity was defined using cells before treatment and all cells with a fluorescence signal above the threshold level were counted and related to all cells."}, "[13]": {"system": "lung fibroblast cell line MRC-5", "design": "method as in PMID 31931103", "details": "MRC-5 ref 5; cited from earlier work"}, "[14]": {"system": "hepatocellular carcinoma cell line Huh-7", "details": "Huh-7 ref 6; cited from earlier work"}, "[15]": {"system": "Calu-3 cells", "assay": "Cell viability assay (Orangu WST-8, formazan-based)"}, "[16]": {"system": "Caco-2 cells", "assay": "Cell viability assay (Orangu WST-8, formazan-based)", "details": "for effect on cell viability: 48 h"}, "[17]": {"target": "T1, P-glycoprotein (Homo sapiens, UniProt P08183)", "T1 construct": "endogenous in cells; host or cells: Caco-2 (high P-gp), Calu-3 (low P-gp)", "T1 sequence (P08183 whole entry)": "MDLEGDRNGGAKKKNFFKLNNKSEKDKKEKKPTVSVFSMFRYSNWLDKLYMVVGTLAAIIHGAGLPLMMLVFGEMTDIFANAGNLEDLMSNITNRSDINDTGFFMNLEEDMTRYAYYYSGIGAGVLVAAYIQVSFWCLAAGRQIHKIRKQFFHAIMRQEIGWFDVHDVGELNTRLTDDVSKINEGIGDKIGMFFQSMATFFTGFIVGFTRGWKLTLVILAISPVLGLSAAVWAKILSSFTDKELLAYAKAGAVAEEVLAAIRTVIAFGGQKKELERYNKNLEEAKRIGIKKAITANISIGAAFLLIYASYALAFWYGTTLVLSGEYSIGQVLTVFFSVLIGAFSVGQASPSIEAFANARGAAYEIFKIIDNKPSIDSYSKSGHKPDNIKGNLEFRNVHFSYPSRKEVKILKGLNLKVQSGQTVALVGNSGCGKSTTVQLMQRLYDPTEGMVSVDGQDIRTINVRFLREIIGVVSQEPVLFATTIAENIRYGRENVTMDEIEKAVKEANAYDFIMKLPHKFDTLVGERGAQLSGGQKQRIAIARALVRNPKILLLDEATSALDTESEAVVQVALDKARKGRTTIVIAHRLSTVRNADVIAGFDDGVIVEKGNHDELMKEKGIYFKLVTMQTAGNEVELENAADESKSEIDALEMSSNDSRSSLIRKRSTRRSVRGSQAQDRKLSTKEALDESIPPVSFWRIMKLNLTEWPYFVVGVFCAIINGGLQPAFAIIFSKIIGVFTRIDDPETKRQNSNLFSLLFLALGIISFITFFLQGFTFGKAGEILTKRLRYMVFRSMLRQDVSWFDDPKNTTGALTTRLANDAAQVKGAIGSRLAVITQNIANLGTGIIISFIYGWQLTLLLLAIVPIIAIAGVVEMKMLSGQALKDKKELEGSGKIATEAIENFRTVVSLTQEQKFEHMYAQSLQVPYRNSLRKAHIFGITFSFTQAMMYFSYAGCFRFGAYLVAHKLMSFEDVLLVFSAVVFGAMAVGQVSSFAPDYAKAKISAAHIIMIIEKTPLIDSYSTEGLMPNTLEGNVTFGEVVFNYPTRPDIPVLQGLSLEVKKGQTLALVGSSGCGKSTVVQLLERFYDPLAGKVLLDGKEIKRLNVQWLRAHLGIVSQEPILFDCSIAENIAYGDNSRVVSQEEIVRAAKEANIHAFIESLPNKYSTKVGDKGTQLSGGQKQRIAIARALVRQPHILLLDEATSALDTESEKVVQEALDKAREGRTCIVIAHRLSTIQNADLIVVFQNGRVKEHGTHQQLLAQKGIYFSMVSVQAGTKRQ", "details": "cited from earlier work"}, "[18]": {"system": "Caco-2 cells", "assay": "Cellular uptake assay (LC-MS/MS)"}, "[19]": {"system": "Caco-2 cell barrier", "assay": "Transport assay across cell barrier"}, "[20]": {"system": "HEK293T cells", "assay": "cAMP assay (GloSensor luciferase), GPCR off-target", "details": "silvestrol 10, 50, 100 nM"}, "[21]": {"system": "primary dendritic cells", "design": "method as in PMID 35336926", "details": "primary dendritic cells ref 9; cited from earlier work"}, "[22]": {"assay": "Stability assay in human liver microsomes", "assay_type": "in vitro ADME", "details": "pH 7.4, human liver microsomes 0.5 mg/mL, 100 nM", "experimental": "The reaction was started with 1 mM NADPH diluted in potassium phosphate buffer. As control, samples without NAPDH were used. After various time points (0 h, 1 h, 2 h, 4 h), the reaction was stopped by adding ice-cold acetonitrile. The samples were centrifuged (5 min, 4 °C, 10,000× g) and supernatant was stored at −80 °C until the remaining drug concentration was determined by LC-MS/MS as described in detail below. The concentrations of the drugs were plotted against time and the elimination constant (k) was calculated from the slope (m):m = −k\nEquation to determine half-life:T1/2 = 0.693/K\nEquation to determine intrinsic clearance:Cl = Ln(2) × 1000/T1/2/protein concentration"}, "[23]": {"system": "HeLa", "details": "HeLa ref 6; cited from earlier work"}, "[24]": {"details": "mice, formulated in hydroxypropyl-β-cyclodextrin, intraperitoneal ref 30; cited from earlier work"}, "[25]": {"system": "HepG2 cells", "assay": "In Vitro Micronuclei Plus assay (flow cytometry)"}, "[26]": {"system": "Calu-3 cells", "assay": "Cellular uptake assay (LC-MS/MS)"}, "[27]": {"system": "HepG2 cells", "assay": "Cell viability assay (Orangu WST-8, formazan-based)", "experimental": "For the cell viability assay, HepG2 cells were incubated with various\nnormalized to the absorbance of the respective DMSO value to calculate cell viability. The experiments were performed in biological\n(1 picture or pasted object on this page, not shown here)"}, "[28]": {"system": "Chikungunya virus", "design": "method as in PMID 31931103", "details": "Chikungunya virus ref 5; read-out: EC50 (50% reduction of the virus titer); cited from earlier work"}, "[29]": {"system": "primary M2 macrophages", "design": "method as in PMID 35336926", "details": "primary M2 macrophages ref 9; read-out: CC50 (no cytotoxic effects up to); cited from earlier work"}, "[30]": {"system": "T cells", "design": "method as in PMID 35336926, PMID 1360266", "details": "T cells ref 9, 34; cited from earlier work"}, "[31]": {"system": "primary M1 macrophages", "design": "method as in PMID 35336926", "details": "primary M1 macrophages ref 9; cited from earlier work"}, "[32]": {"system": "primary monocytes", "design": "method as in PMID 35336926", "details": "primary monocytes ref 9; cited from earlier work"}, "[33]": {"system": "non-transformed primary cells", "details": "several non-transformed primary cells ref 6, 20, 30; cited from earlier work"}, "[34]": {"system": "HEK293T cells", "assay": "IP3 assay, GPCR off-target", "assay_type": "cell-based", "details": "silvestrol"}},
  "note": "“And” between values parts separate entries of the source, which are not always exact repeats. Identical values can stand only once. Like-named read-outs stand apart in the source and are kept apart here.",
  "data": [
    {"molecule": "COC(=O)[C@H]1[C@@H](O)[C@@]2(O)c3c(OC)cc(O[C@@H]4O[C@@H]([C@H](O)CO)CO[C@H]4OC)cc3O[C@@]2(c2ccc(OC)cc2)[C@@H]1c1ccccc1", "note": "[silvestrol]", "values": [
      {"measurement": "CC50 at 48 h", "setting": "[1]", "value": 0.016, "unit": "µM"},
      {"measurement": "CC50", "setting": "[2]", "value": 0.0159, "unit": "µM"},
      {"measurement": "effect on TEER readings (cell barrier integrity)", "setting": "[3]", "value": "reduced TEER readings only slightly"},
      {"measurement": "transport rate", "setting": "[4]; 50 nM, 24 h", "value": 7.8, "unit": "%"},
      {"measurement": "transport rate", "setting": "[4]; 100 nM, 4 h", "value": 0.8, "unit": "%"},
      {"measurement": "transport rate", "setting": "[4]; 100 nM, 24 h", "value": 10.6, "unit": "%"},
      {"measurement": "EC50", "setting": "[5]", "value": "~0.005", "unit": "µM"},
      {"measurement": "reduction of virus titers", "setting": "[6]", "value": "up to 4 log phases"},
      {"measurement": "EC50", "setting": "[6]; read-out: EC50 for inhibition of virus replication", "value": "0.001 to 0.1", "unit": "µM"},
      {"measurement": "EC50", "setting": "[6]; various viruses, such as corona- and Ebolaviruses (abstract), read-out: EC50", "value": "~0.005", "unit": "µM"},
      {"measurement": "CC50", "setting": "[7]", "value": 0.00942, "unit": "µM"},
      {"measurement": "CC50", "setting": "[8]", "value": 0.0007, "unit": "µM"},
      {"measurement": "EC50", "setting": "[9]", "value": "~0.005", "unit": "µM"},
      {"measurement": "CC50", "setting": "[10]", "value": 0.0372, "unit": "µM"},
      {"measurement": "CC50 at 48 h", "setting": "[11]", "value": 0.037, "unit": "µM"},
      {"measurement": "induction of Ca2+-release", "setting": "[12]", "value": "did not significantly induce"},
      {"measurement": "cytotoxicity (no cytotoxicity up to)", "setting": "[13]", "value": "> 50", "unit": "µM"},
      {"measurement": "CC50", "setting": "[14]", "value": 0.03, "unit": "µM"},
      {"measurement": "effect on cell viability", "setting": "[15]; 48 h", "value": "did not reduce viability below 50%"},
      {"measurement": "reduction of viability", "setting": "[15]; concentrations up to 1000 nM", "value": "about 50%"},
      {"measurement": "effect on cell viability", "setting": "[16]", "value": "did not reduce viability below 50%"},
      {"measurement": "effect on cell viability", "setting": "[16]; listed as Silvestrol", "value": "only minor effects"},
      {"measurement": "reduction of viability", "setting": "[16]; concentrations up to 1000 nM", "value": "about 50%"},
      {"measurement": "change of cytotoxicity on inhibition of P-glycoprotein", "setting": "[16]; preincubated with 1 µM cyclosporine 60 min, then 48 h", "value": "increased the cytotoxic potential"},
      {"measurement": "substrate of P-glycoprotein", "setting": "[17]", "value": "substrate"},
      {"measurement": "cellular uptake (maximum)", "setting": "[18]; 25 nM, 2 and 4 h", "value": "about 2.5 pg/µg protein"},
      {"measurement": "uptake related to used silvestrol", "setting": "[18]; 25 nM, at maximum", "value": "≈ 1.3%"},
      {"measurement": "change of intracellular silvestrol level on inhibition of P-glycoprotein", "setting": "[18]; preincubated with 1 µM cyclosporine 60 min", "value": "leads to an increase in intracellular silvestrol levels"},
      {"measurement": "transport rate", "setting": "[19]; 50 nM, 24 h", "value": 1.3, "unit": "%"},
      {"measurement": "transport rate", "setting": "[19]; 100 nM, 4 h", "value": 0.5, "unit": "%"},
      {"measurement": "transport rate", "setting": "[19]; 100 nM, 24 h", "value": 1.9, "unit": "%"},
      {"measurement": "induction of cAMP synthesis", "setting": "[20]", "value": "did not significantly induce"},
      {"measurement": "cytotoxicity (no cytotoxic effects up to)", "setting": "[21]", "value": "> 100", "unit": "nM"},
      {"measurement": "half-life at 100 nM", "setting": "[22]", "value": "11.6 ± 1.2", "unit": "h"},
      {"measurement": "microsomal CLint at 100 nM", "setting": "[22]; read-out: intrinsic clearance", "value": "1.7 ± 0.5", "unit": "µL/min/mg"},
      {"measurement": "CC50", "setting": "[23]", "value": 0.005, "unit": "µM"},
      {"measurement": "intraperitoneal systemic availability", "setting": "[24]", "value": 100, "unit": "%"},
      {"measurement": "clastogenic effects (micronuclei)", "setting": "[25]; 50 nM", "value": "clastogenic effects"},
      {"measurement": "aneugenic effects (hypodiploid cells)", "setting": "[25]; silvestrol concentrations up to 50 nM", "value": "no aneugenic effects"},
      {"measurement": "uptake related to used amount of silvestrol", "setting": "[26]; at maximum", "value": "≈ 3.7%"},
      {"measurement": "cellular uptake (maximum)", "setting": "[26]; concentration- and time-dependent", "value": "about 7.7 pg/µg protein"},
      {"measurement": "effect on cell viability", "setting": "[27]; 48 h", "value": "only minor effects"},
      {"measurement": "reduction of viability", "setting": "[27]; concentrations up to 1000 nM", "value": "about 50%"},
      {"measurement": "EC50", "setting": "[28]", "value": "~0.005", "unit": "µM"},
      {"measurement": "CC50", "setting": "[29]", "value": "> 0.1", "unit": "µM"},
      {"measurement": "cytotoxicity (no cytotoxic effects up to)", "setting": "[30]", "value": "> 100", "unit": "nM"},
      {"measurement": "CC50", "setting": "[31]", "value": "0.0456 µM and 0.046 µM"},
      {"measurement": "CC50", "setting": "[32]", "value": 0.029, "unit": "µM"},
      {"measurement": "cytotoxicity", "setting": "[33]", "value": "no major cytotoxicity"},
      {"measurement": "induction of IP3 synthesis", "setting": "[34]", "value": "did not significantly induce"}
    ]}
  ]
}
